Experimental data published in patent US20250324971A1, “HERBICIDAL DERIVATIVES” (SYNGENTA CROP PROTECTION AG, priority 2022, published 2025).

Columns and labels:
Type in all cases: in vivo
Setaria faberi (SETFA) [1] = assay: Pre-Emergence Test (herbicidal, glasshouse pots); details: evaluated after 13 days, five-point scale
[2] = system: Ipomoea hederacea (IPOHE); assay: Pre-Emergence Test (herbicidal, glasshouse pots); details: evaluated after 13 days, five-point scale
[3] = system: Echinochloa crus-galli (ECHCG); assay: Pre-Emergence Test (herbicidal, glasshouse pots); details: evaluated after 13 days, five-point scale
[4] = system: Amaranthus retoflexus (AMARE); assay: Pre-Emergence Test (herbicidal, glasshouse pots); details: evaluated after 13 days, five-point scale
Zea mays (ZEAMX) [5] = assay: Pre-Emergence Test (herbicidal, glasshouse pots); details: evaluated after 13 days, five-point scale
[6] = system: Amaranthus palmeri (AMAPA); assay: Pre-Emergence Test (herbicidal, glasshouse pots); details: evaluated after 13 days, five-point scale
[7] = system: Amaranthus palmeri (AMAPA); assay: Post-Emergence Test (herbicidal, glasshouse pots); details: evaluated after 13 days
How it was run: (§1)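 Seeds were sown in standard soil in pots, sprayed at the stated g/ha with an acetone/water (50:50) solution containing 0.5% Tween 20, and kept in a glasshouse (24° C./16° C. day/night, 14 hours light, 65% humidity). Percentage plant damage was scored 13 days later on a five-point scale.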

[8] = system: Amaranthus retoflexus (AMARE); assay: Post-Emergence Test (herbicidal, glasshouse pots); details: evaluated after 13 days
How it was run: as §1

[9] = system: Echinochloa crus-galli (ECHCG); assay: Post-Emergence Test (herbicidal, glasshouse pots); details: evaluated after 13 days
How it was run: as §1

[10] = system: Ipomoea hederacea (IPOHE); assay: Post-Emergence Test (herbicidal, glasshouse pots); details: evaluated after 13 days
How it was run: as §1

Setaria faberi (SETFA) [11] = assay: Post-Emergence Test (herbicidal, glasshouse pots); details: evaluated after 13 days
How it was run: as §1

Zea mays (ZEAMX) [12] = assay: Post-Emergence Test (herbicidal, glasshouse pots); details: evaluated after 13 days
How it was run: as §1

C/C=C(\C)COc1cc(=O)c(C(=O)O)c(-c2ccc(Cl)c(Cl)c2)n1CC [Compound 63, 2-(3,4-dichlorophenyl)-1-ethyl-6-[(E)-2-methylbut-2-enoxy]-4-oxo-pyridine-3-carboxylic acid]
0: percentage damage caused to the plant, SETFA (Setaria faberi (SETFA) [1]; rate 250 g/ha) | percentage damage caused to the plant, ECHCG ([3]; rate 250 g/ha) | percentage damage caused to the plant, ZEAMX (Zea mays (ZEAMX) [5]; rate 250 g/ha) | percentage damage caused to the plant, AMAPA ([6]; rate 250 g/ha) | Post-Emergence Test SETFA percentage damage (five-point scale) (Setaria faberi (SETFA) [11]; rate 250 g/ha)
1 (1=0-20%): percentage damage caused to the plant, AMARE ([4]; rate 250 g/ha) | Post-Emergence Test AMAPA percentage damage (five-point scale) ([7]; rate 250 g/ha) | Post-Emergence Test ECHCG percentage damage (five-point scale) ([9]; rate 250 g/ha) | Post-Emergence Test ZEAMX percentage damage (five-point scale) (Zea mays (ZEAMX) [12]; rate 250 g/ha)
2 (2=21-40%): percentage damage caused to the plant, IPHOE ([2]; rate 250 g/ha) | Post-Emergence Test AMARE percentage damage (five-point scale) ([8]; rate 250 g/ha) | Post-Emergence Test IPHOE percentage damage (five-point scale) ([10]; rate 250 g/ha)

CCn1c(Oc2ccc(OC(F)(F)F)cc2)cc(=O)c(C(=O)O)c1-c1ccc(Cl)c(Cl)c1 [Compound 20, 2-(3,4-dichlorophenyl)-1-ethyl-4-oxo-6-[4-(trifluoromethoxy)phenoxy]pyridine-3-carboxylic acid]
2 (2=21-40%): percentage damage caused to the plant, IPHOE ([2]; rate 1000 g/ha)
5 (5=81-100%): percentage damage caused to the plant, SETFA (Setaria faberi (SETFA) [1]; rate 1000 g/ha) | percentage damage caused to the plant, ECHCG ([3]; rate 1000 g/ha) | Post-Emergence Test SETFA percentage damage (five-point scale) (Setaria faberi (SETFA) [11]; rate 1000 g/ha)
3 (3=41-60%): percentage damage caused to the plant, ZEAMX (Zea mays (ZEAMX) [5]; rate 1000 g/ha) | Post-Emergence Test AMAPA percentage damage (five-point scale) ([7]; rate 1000 g/ha) | Post-Emergence Test IPHOE percentage damage (five-point scale) ([10]; rate 1000 g/ha) | Post-Emergence Test ZEAMX percentage damage (five-point scale) (Zea mays (ZEAMX) [12]; rate 1000 g/ha)
4 (4=61-80%): percentage damage caused to the plant, AMARE ([4]; rate 1000 g/ha) | percentage damage caused to the plant, AMAPA ([6]; rate 1000 g/ha) | Post-Emergence Test AMARE percentage damage (five-point scale) ([8]; rate 1000 g/ha) | Post-Emergence Test ECHCG percentage damage (five-point scale) ([9]; rate 1000 g/ha)

CCn1c(Oc2ccn(C)n2)cc(=O)c(C(=O)O)c1-c1ccc(Cl)c(Cl)c1 [Compound 37, 2-(3,4-dichlorophenyl)-1-ethyl-6-(1-methylpyrazol-3-yl)oxo-4-oxo-pyridine-3-carboxylic acid]
4 (4=61-80%): percentage damage caused to the plant, ECHCG ([3]; rate 62.5 g/ha) | Post-Emergence Test AMAPA percentage damage (five-point scale) ([7]; rate 62.5 g/ha) | Post-Emergence Test AMARE percentage damage (five-point scale) ([8]; rate 62.5 g/ha) | Post-Emergence Test ECHCG percentage damage (five-point scale) ([9]; rate 62.5 g/ha) | Post-Emergence Test SETFA percentage damage (five-point scale) (Setaria faberi (SETFA) [11]; rate 62.5 g/ha) | Post-Emergence Test ZEAMX percentage damage (five-point scale) (Zea mays (ZEAMX) [12]; rate 62.5 g/ha)
3 (3=41-60%): percentage damage caused to the plant, IPHOE ([2]; rate 62.5 g/ha) | percentage damage caused to the plant, ZEAMX (Zea mays (ZEAMX) [5]; rate 62.5 g/ha) | Post-Emergence Test IPHOE percentage damage (five-point scale) ([10]; rate 62.5 g/ha)
2 (2=21-40%): percentage damage caused to the plant, AMARE ([4]; rate 62.5 g/ha) | percentage damage caused to the plant, AMAPA ([6]; rate 62.5 g/ha)
5 (5=81-100%): percentage damage caused to the plant, SETFA (Setaria faberi (SETFA) [1]; rate 62.5 g/ha)

CCn1c(Oc2ccc3nccnc3c2)cc(=O)c(C(=O)O)c1-c1ccc(Cl)c(Cl)c1 [Compound 42, 2-(3,4-dichlorophenyl)-1-ethyl-4-oxo-6-quinoxalin-6-yloxy-pyridine-3-carboxylic acid]
3 (3=41-60%): Post-Emergence Test IPHOE percentage damage (five-point scale) ([10]; rate 250 g/ha)
0: percentage damage caused to the plant, ZEAMX (Zea mays (ZEAMX) [5]; rate 250 g/ha)
2 (2=21-40%): percentage damage caused to the plant, IPHOE ([2]; rate 250 g/ha) | percentage damage caused to the plant, AMARE ([4]; rate 250 g/ha) | percentage damage caused to the plant, AMAPA ([6]; rate 250 g/ha)
1 (1=0-20%): percentage damage caused to the plant, SETFA (Setaria faberi (SETFA) [1]; rate 250 g/ha) | percentage damage caused to the plant, ECHCG ([3]; rate 250 g/ha) | Post-Emergence Test AMAPA percentage damage (five-point scale) ([7]; rate 250 g/ha) | Post-Emergence Test AMARE percentage damage (five-point scale) ([8]; rate 250 g/ha) | Post-Emergence Test ECHCG percentage damage (five-point scale) ([9]; rate 250 g/ha) | Post-Emergence Test SETFA percentage damage (five-point scale) (Setaria faberi (SETFA) [11]; rate 250 g/ha) | Post-Emergence Test ZEAMX percentage damage (five-point scale) (Zea mays (ZEAMX) [12]; rate 250 g/ha)
